Our source for the IC50 and IMAX values is patent EP0808325B1, “[…] […] SERIES FOR […] GABA RECEPTOR” (priority 1994, dated 1996).

In this assay the target is GR complex. Description: modulation of [35S]TBPS binding in rat cerebral cortex P2 homogenate. The arrangement: species or system Sprague-Dawley rats; IMAX: unit not given here. As to conditions: for IC50: concentration of compounds to inhibit 50% of control [35S]TBPS binding, 2 nM [35S]TBPS, 25°C, 90 minutes, no unit printed; for IMAX: maximum inhibition of [35S]TBPS binding, I* = Inactive. Here is the method:
We performed several experiments to determine the nature of the modulation of [^35S]TBPS as affected by the compounds of the invention.
These procedures were performed as follows:
Brains from male Sprague-Dawley rats were removed immediately following sacrifice and the cerebral cortices dissected over ice. […] Briefly, the cortices were gently homogenized in 0.32 M sucrose followed by centrifugation at 1000 x g for 10 minutes. The supernatant was collected and centrifuged at 9000 x g for 20 minutes. The resultant P2 pellet was suspended as a 10% (original wet weight/volume) suspension in 50 mM Na/K phosphate buffer (pH 7.4) 200 mM NaCI to form the homogenate.
One hundred microliter […] aliquots of the P2 homogenate (0.5 milligrams (mg) protein) were incubated with 2 nanomolar (nM) [^35S]TBPS (70-110 curies/millimole;, New England Nuclear, Boston, MA) in the presence or absence of the naturally occurring steroids or their synthetic derivatives to be tested. The tested compounds were dissolved in dimethylsulfoxide (Baker Chem. Co., Phillipsbury, NJ) and added to the incubation mixture in 5 µL aliquots. The incubation mixture was brought to a final volume of 1 mL with buffer. Nonspecific binding was defined as binding in the presence of […]. The effect and specificity of GABA (Sigma Chem. Co., St. Louis, MO) was evaluated by performing all assays in the presence of GABA plus (+)bicuculline (Sigma Chem. Co.). Incubations maintained at 25°C for 90 minutes (steady state conditions) were terminated by rapid filtration through glass fiber filters (No. 32, Schleicher and Schuell, Keene, NH). Filter-bound radioactivity was quantitated by liquid scintillation spectrophotometry.
Various compounds were screened to determine their potential as modulators of [^35S]TBPS binding in vitro. These assays were performed in accordance with the above discussed procedures. […] It is an indication of a compound's in vitro potency. Maximum inhibition is an indication of a compound's in vitro efficacy.

Compound `C#CC1(O)CCC2(C)C(CCC3C2CCC2(C)C(C(C)O)CCC32)C1` (stereo not drawn) [3α,20α-dihydroxy-3β-ethynyl-5α-pregnane, 3β-Ethynyl-3α,20α-dihydroxy-5α-pregnane] showed an IC50 of 202 nM and an IMAX of 56.

For the compound `C#CC1(O)CCC2(C)C(CCC3C2CCC2(C)C(C(C)O)CCC32)C1` (stereo not drawn) [3α,20α-dihydroxy-3β-ethynyl-5β-pregnane, 3β-Ethynyl-3α,20α-dihydroxy-5β-pregnane], the IC50 was found to be 557 nM and the IMAX amounted to 98.

`CC(O)C1CCC2C3CCC4CC(C)(O)CCC4(C)C3CCC12C` (stereo not drawn) [3α,20β-dihydroxy-3β-methyl-5α-pregnane]: the IC50 was determined as 924 nM and the IMAX is listed as 99.

For `CC(O)C1CCC2C3CCC4CC(C)(O)CCC4(C)C3CCC12C` (stereo not drawn) [3α,20β-dihydroxy-3β-methyl-5β-pregnane], the IC50 worked out at 455 nM and the IMAX turned out to be 105.

`C=C[C@@]1(O)CC[C@@]2(C)[C@@H](CC[C@@H]3[C@@H]2CC[C@]2(C)[C@@H](C(=O)COC(=O)CCC(=O)O)CC[C@@H]32)C1` [3α,21-dihydroxy-3β-ethenyl-5α-pregnan-20-one 21-hemisuccinate] came in with a concentration for half-maximal inhibition (IC50) of 377 nM and an IMAX of 89.

`C=C[C@@]1(O)CC[C@@]2(C)[C@@H](CC[C@@H]3[C@@H]2CC[C@]2(C)[C@@H](C(=O)CO)CC[C@@H]32)C1` [3α,21-dihydroxy-3β-ethenyl-5α-pregnan-20-one] had an IC50 of 288 nM and an IMAX of 101.

The compound `COC(=O)CCC(=O)OCC(=O)C1CCC2C3CCC4CC(O)(C(F)(F)F)CCC4(C)C3CCC12C` (stereo not drawn) [3α,21-dihydroxy-3β-trifluoromethyl-5β-pregnan-20-one methyl 21-succinate] came in with a half-inhibitory concentration (IC50) of 480 nM and an IMAX of 86.

`C[C@]12CC[C@@H](O)C[C@@H]1CC[C@@H]1[C@@H]2CC[C@]2(C)[C@@H](C(=O)COC(=O)CCC(=O)O)CC[C@@H]12` [3α,21-dihydroxy-5α-pregnan-20-one 21-hemisuccinate] came in with a half-maximal inhibitory concentration (IC50) of 117 nM and an IMAX of 91.

`CCC(=O)[C@H]1CC[C@H]2[C@@H]3CC[C@H]4C[C@](C)(O)CC[C@]4(C)[C@H]3CC[C@]12C` [3α-hydroxy-3β,21-dimethyl-5α-pregnan-20-one] had an IC50 of 89 nM and an IMAX of 85.

Compound `CC(=O)[C@H]1CC[C@H]2[C@@H]3CC[C@H]4C[C@](C)(O)CC[C@]4(C)[C@H]3C=C[C@]12C` [3α-hydroxy-3β-methyl-5α-pregn-11-en-20-one] displayed an IC50 of 242 nM and an IMAX of 76.

`CC(=O)[C@H]1CC[C@H]2[C@@H]3CC[C@H]4C[C@](C)(O)CC[C@]4(C)[C@H]3C(=O)C[C@]12C` [3α-hydroxy-3β-methyl-5α-pregnane-11,20-dione]: the IC50 came to 958 nM and the IMAX worked out at 100.

`CC(=O)[C@H]1CC[C@H]2[C@@H]3CC[C@@H]4C[C@](C)(O)CC[C@@H]4[C@H]3CC[C@]12C` [3α-hydroxy-3β-methyl-5β-19-nor-pregnan-20-one] showed an IC50 of 26 nM and an IMAX of 94.

`CC(=O)C1=CC[C@H]2[C@@H]3CC[C@@H]4C[C@](C)(O)CC[C@]4(C)[C@H]3CC[C@]12C` [3α-hydroxy-3β-methyl-5β-pregn-16-en-20-one] displayed an IC50 of 955 nM and an IMAX of 100.

With `CCC(=O)[C@H]1CC[C@H]2[C@@H]3CC[C@@H]4C[C@H](O)CC[C@]4(C)[C@H]3CC[C@]12C` [3α-hydroxy-21-methyl-5β-pregnan-20-one], the IC50 turned out to be 78 nM and the IMAX worked out at 100.

Compound `CC(=O)C1CCC2C3CCC4CC(O)(C#CCCCCl)CCC4(C)C3CCC12C` (stereo not drawn) [3β-(5'-chloropentyn-1'-yl)-3α-hydroxy-5β-pregnan-20-one] yielded an IC50 of 44 nM and an IMAX of 98.

Consider `CC12CCC(O)(C(F)(F)F)CC1CCC1C2CCC2(C)C(C(=O)CBr)CCC12` (stereo not drawn) [21-bromo-3α-hydroxy-3β-trifluoromethyl-5β-pregnan-20-one], for which the IC50 was found to be 1530 nM and the IMAX is recorded as 102.
